Assay results as given in patent publication US20240122956A1, “Application of Naringin Combined with Rapamycin in Preparation of Medications for Treating Hyperlipidemia” (AIR FORCE MEDICAL UNIVERSITY, priority 2023, published 2024).

What was measured:
[1] = system: hyperlipidemia model Ldr1−/− (C57BL/6J) mice; assay: lipid accumulation / lesions in carotid arteries, aortic roots and liver of hyperlipidemic mice (Oil Red O); format: in vivo; details: high-fat diet 16 weeks, naringin 20 mg/kg daily intraperitoneal, RAPA 40 mg/kg in diet
Text: To evaluate the synergistic therapeutic effects of naringin and rapamycin on hyperlipidemia mice (FIG. 4), a hyperlipidemia model was established using Ldr1^−/− (C57BL/6J) mice. […] Subsequently, mouse serum, tissues of carotid arteries, liver, and aortic root were collected for analysis. Assessment of Lesions in Carotid Arteries, Aortic Roots, and Liver Tissues: Carotid arteries, hearts, and livers of mice were dissected, fixed overnight with 4% PFA, and carotid arteries were stained with Oil Red O after gently removing adherent (outer membrane) fat and flattening them from the carotid arteries. The stained aortas were placed on anti-fall-off slides, fully unfolded, and images were captured using a high-resolution camera. Hearts and livers were embedded in OCT tissue, and 7-10 μm thick continuous sections were collected. Staining was performed with Oil Red O and hematoxylin and eosin. Stained sections were analyzed using an optical microscope. ImageJ (version 2.10) was used for quantitative analysis of the images. Lesion areas were assessed according to the percentage of Oil Red 0-positive areas in the total sampled area.

[2] = system: oxidized low-density lipoprotein (oxLDL); assay: drug screening among 200 natural products for neutralizing oxLp: affinity and surface charge, oxLDL; format: binding
Text: (§1) This unregulated process of lipid accumulation and inflammatory reaction, induced by oxLp-NLRP3 complexes, accelerates the progression of hyperlipidemia. Considering the role of oxLp-NLRP3 complexes in the progression of hyperlipidemia, a drug screening technique was employed to search for potential compounds among 200 natural products with the aim of neutralizing oxLp. […] Therefore, naringin was selected for further investigation.

[3] = system: oxLDL-NLRP3 complexes; assay: formation of oxLDL-NLRP3 complexes in THP-1 cells (fluorescence imaging); format: cell-based; details: naringin 100 μM pre-treatment 1 hour, oxLDL 50 μg/mL 3 hours
Description: (§2) Cell Culture and Treatment: THP-1 cells (from American Type Culture Collection, Manassas, Virginia) were cultured in RPMI 1640. They were pre-treated with naringin (Sigma, 91842; 100 μM) for 1 hour, followed by cultivation in serum-free medium containing oxLDL and oxHDL (50 μg/mL) for 3 hours. The culture condition was maintained at 37° C. and with 5% CO2.

[4] = system: THP-1 cells; assay: IL-1β release in THP-1 cells; format: cell-based; details: naringin 100 μM pre-treatment 1 hour
Description: as §2
Measurement of IL-1β: IL-1β was measured using a commercially available IL-1β assay kit according to the manufacturer's instructions.

[5] = system: oxHDL-NLRP3 complexes; assay: formation of oxHDL-NLRP3 complexes in THP-1 cells (fluorescence imaging); format: cell-based; details: naringin 100 μM pre-treatment 1 hour, oxHDL 50 μg/mL 3 hours
Description: as §2

[6] = system: THP-1 cells; assay: intracellular cholesterol accumulation in THP-1 cells; format: cell-based; details: naringin 100 μM pre-treatment 1 hour
Description: as §2
Measurement of Intracellular Cholesterol: Intracellular cholesterol was determined using a commercially available intracellular cholesterol assay kit according to the manufacturer's instructions.

[7] = system: oxidized high-density lipoprotein (oxHDL); assay: drug screening among 200 natural products for neutralizing oxLp: affinity and surface charge, oxHDL; format: binding
Text: as §1

## C[C@@H]1O[C@@H](O[C@H]2[C@H](Oc3cc(O)c4c(c3)O[C@H](c3ccc(O)cc3)CC4=O)O[C@H](CO)[C@@H](O)[C@@H]2O)[C@H](O)[C@H](O)[C@H]1O [naringin]
[1]
  lipid accumulation in the aortic roots: alleviated lipid accumulation
  lipid accumulation in the carotid arteries: alleviated lipid accumulation
  lipid accumulation in the livers: alleviated lipid accumulation
[2]
  neutralizing the negative charge on the surface of oxLDL: capable of neutralizing the negative charge
[2]; drug screening
  affinity for oxLDL: high affinity
[3]
  formation of complexes between oxLDL and NLRP3: inhibited the formation of complexes
[4]; oxHDL 50 μg/mL 3 hours
  oxHDL-induced IL-1β release: reduced
[4]; oxLDL 50 μg/mL 3 hours
  oxLDL-induced IL-1β release: reduced
[5]
  formation of complexes between oxHDL and NLRP3: inhibited the formation of complexes
[6]; oxHDL 50 μg/mL 3 hours
  oxHDL-induced cholesterol accumulation: reduced
[6]; oxLDL 50 μg/mL 3 hours
  oxLDL-induced cholesterol accumulation: reduced
[7]
  neutralizing the negative charge on the surface of oxHDL: capable of neutralizing the negative charge
[7]; drug screening
  affinity for oxHDL: high affinity
